Experimental data taken from patent publication US9006450B2 (Boehringer Ingelheim International GmbH, priority 2010, dated 2015).

What follows are compounds tested against T1, human ACC2 (Homo sapiens, UniProt O00763) (assay: ACC2 assay, spectrophotometric 384 well assay (NADH-linked, coupled lactate dehydrogenase/pyruvate kinase)). Conditions: ACC2 assay, hACC2 construct lacking 128 N-terminal amino acids, 25° C., 340 nm; read-out: IC50.
T1 construct: made in house; host or cells: insect cells (baculoviral expression system)
Type: biochemical
Summary of the method: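 ADP output tracked via pyruvate kinase/lactate dehydrogenase NADH oxidation, slope at 340 nm over 15 min, 25° C, with 500 μM ATP and 200 μM each acetyl-CoA and NADH. Enzyme: insect-cell-expressed human ACC2, N-terminal 128 residues deleted; pH 7.5 Tris with citrate, KHCO3. IC50 from four-parameter regression versus vehicle and no-acetyl-CoA controls.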

T1 sequence (O00763 129-2458 limits assumed): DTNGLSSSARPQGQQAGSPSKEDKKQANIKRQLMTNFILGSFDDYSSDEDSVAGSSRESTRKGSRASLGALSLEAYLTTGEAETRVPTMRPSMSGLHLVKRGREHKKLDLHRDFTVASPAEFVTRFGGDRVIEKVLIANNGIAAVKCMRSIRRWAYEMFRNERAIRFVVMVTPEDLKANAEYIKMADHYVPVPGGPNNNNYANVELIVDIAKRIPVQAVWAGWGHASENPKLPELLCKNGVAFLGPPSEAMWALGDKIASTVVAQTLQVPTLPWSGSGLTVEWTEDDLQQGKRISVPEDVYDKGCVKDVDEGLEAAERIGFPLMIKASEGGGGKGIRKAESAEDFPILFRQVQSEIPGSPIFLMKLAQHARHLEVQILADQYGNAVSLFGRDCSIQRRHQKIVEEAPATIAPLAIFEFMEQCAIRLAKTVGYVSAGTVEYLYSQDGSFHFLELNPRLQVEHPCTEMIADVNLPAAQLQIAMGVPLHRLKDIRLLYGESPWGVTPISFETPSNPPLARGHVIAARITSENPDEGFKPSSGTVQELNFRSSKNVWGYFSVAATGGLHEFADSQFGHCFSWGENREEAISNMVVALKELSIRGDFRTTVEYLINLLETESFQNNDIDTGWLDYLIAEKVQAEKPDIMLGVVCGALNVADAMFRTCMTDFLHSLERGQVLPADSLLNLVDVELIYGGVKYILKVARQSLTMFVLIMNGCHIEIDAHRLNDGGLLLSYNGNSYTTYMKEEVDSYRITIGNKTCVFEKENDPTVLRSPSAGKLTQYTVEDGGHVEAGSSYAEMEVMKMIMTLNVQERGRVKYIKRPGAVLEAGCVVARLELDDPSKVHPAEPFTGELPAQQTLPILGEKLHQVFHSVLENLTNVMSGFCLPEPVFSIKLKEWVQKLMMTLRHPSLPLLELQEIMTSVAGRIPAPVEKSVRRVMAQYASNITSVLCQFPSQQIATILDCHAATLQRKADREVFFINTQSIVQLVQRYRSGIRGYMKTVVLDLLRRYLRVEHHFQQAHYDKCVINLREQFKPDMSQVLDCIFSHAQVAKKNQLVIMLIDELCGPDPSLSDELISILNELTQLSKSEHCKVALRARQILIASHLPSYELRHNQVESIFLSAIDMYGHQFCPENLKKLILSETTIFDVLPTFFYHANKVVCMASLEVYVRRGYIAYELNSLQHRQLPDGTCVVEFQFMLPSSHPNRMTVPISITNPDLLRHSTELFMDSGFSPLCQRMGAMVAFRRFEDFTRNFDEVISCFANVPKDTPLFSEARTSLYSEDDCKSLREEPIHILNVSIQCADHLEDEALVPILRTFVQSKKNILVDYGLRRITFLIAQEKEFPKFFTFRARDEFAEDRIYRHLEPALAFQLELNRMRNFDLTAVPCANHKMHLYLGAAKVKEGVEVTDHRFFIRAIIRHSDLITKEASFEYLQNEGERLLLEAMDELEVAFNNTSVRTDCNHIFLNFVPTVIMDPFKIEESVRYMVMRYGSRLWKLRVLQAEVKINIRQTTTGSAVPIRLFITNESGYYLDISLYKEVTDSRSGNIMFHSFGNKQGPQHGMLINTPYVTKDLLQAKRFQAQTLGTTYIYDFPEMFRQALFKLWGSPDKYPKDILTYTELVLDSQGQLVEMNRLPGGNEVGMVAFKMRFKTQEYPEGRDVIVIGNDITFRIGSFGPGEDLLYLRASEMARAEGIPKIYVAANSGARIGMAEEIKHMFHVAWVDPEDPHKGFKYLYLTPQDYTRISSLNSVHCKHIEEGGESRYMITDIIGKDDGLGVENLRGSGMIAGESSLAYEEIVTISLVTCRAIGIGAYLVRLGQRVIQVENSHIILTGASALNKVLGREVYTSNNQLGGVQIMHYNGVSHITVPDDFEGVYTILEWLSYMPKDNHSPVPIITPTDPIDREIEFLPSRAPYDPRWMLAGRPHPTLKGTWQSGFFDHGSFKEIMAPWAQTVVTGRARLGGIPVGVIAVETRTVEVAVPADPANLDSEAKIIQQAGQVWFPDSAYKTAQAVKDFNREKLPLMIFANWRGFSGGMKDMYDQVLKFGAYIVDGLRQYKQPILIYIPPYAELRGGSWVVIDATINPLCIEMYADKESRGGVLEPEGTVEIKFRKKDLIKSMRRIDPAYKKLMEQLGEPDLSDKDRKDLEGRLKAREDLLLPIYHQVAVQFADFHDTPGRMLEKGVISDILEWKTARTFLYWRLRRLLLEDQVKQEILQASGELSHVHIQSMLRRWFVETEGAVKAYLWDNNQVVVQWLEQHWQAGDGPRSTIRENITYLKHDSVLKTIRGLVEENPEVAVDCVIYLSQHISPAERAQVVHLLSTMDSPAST

Row | IC50 | SMILES
1 | 0.65 µM | CC(=O)N[C@@H](C)c1ccc(C2CCN(c3ncc(Br)cn3)CC2)cc1 [Example 4.44]
2 | 0.43 µM | CC(=O)N[C@@H](C)c1ccc(C2CCN(c3ncc(-c4ccc5[nH]ccc5c4)cc3F)CC2)cc1 [Example 10.302]
3 | 0.12 µM | C[C@H](NC(=O)N(C)C)c1ccc(C2CCN(c3ccc4c(c3)OCC(C)(C)CO4)CC2)cc1 [Example 1.58]
4 | 0.92 µM | CC(=O)N[C@@H](C)c1ccc(C2CCN(c3ccnc(OCc4ccon4)c3)CC2)cc1 [Example 19.29]
5 | 0.17 µM | CC(=O)N[C@@H](C)c1ccc(C2CCN(c3ccc(OCc4ccoc4)cc3)CC2)cc1 [Example 1.186]
6 | 0.06 µM | C[C@H](NC(=O)N(C)C)c1ccc(C2CCN(c3ccc(OCCC4CC4)cc3)CC2)cc1 [Example 1.144]
7 | 17.8 µM | CC(=O)N[C@@H](C)c1ccc(C2CCN(c3ncc(C(=O)NCCC(C)O)cn3)CC2)cc1 (stereo partly drawn) [Example 18.75]
8 | 0.75 µM | CC(=O)N[C@@H](C)c1ccc(C2CCN(c3ccc(C4CC4)cn3)CC2)cc1 [Example 10.304]
9 | 0.21 µM | COCCCOc1cccc(N2CCC(c3ccc([C@H](C)NC(C)=O)cc3)CC2)c1 [Example 9.9]
10 | 0.06 µM | CC(=O)N[C@@H](C)c1ccc(C2CCN(c3ccnc(Oc4ccccc4)c3)CC2)cc1 [Example 3.12]
11 | 0.8 µM | CC(=O)N[C@@H](C)c1ccc(C2CCN(c3ncc(C(=O)N(C)Cc4ccccc4)cn3)CC2)cc1 [Example 18.93]
12 | 0.29 µM | CCCOc1ccc(N2CCC(c3ccc([C@H](C)NC(=O)C(F)(F)F)cc3)CC2)c(OC)c1 [Example 40.1, (S)-2,2,2-Trifluoro-N-{1-[4-(1-(2-methoxy-4-propoxyphenyl)piperidin-4-yl)phenyl]-ethyl}acetamide]
13 | 0.19 µM | C[C@H](NC(=O)N(C)C)c1ccc(C2CCN(c3cc(OC4CCC4)ncn3)CC2)cc1 [Example 20.4]
14 | 0.13 µM | COC(=O)N[C@@H](C)c1ccc(C2CCN(c3ccc(OC4CCCC4)cc3)CC2)cc1 [Example 1.133]
15 | 0.11 µM | CC(=O)N[C@@H](C)c1ccc(C2CCN(c3cc(OCC4CC4)ncn3)CC2)cc1 [Example 11.108]
16 | 0.1 µM | CC(=O)N[C@@H](C)c1ccc(C2CCN(c3ccc(OCCC4CC4)cc3)CC2)cc1 [Example 8.63]
17 | 0.03 µM | CC(=O)N[C@@H](C)c1ccc(C2CCN(c3ncc(-c4ccc(C#N)s4)cn3)CC2)cc1 [Example 10.63]
18 | 3.1 µM | C[C@H](NC(=O)C1CC1)c1ccc(C2CCN(c3nc(Cl)ncc3F)CC2)cc1 [Example 5.36]
19 | 5.8 µM | CC(=O)N[C@@H](C)c1ccc(C2CCN(c3cccc(O)c3)CC2)cc1 [Example 1.27, (S)—N-{1-(4-[1-(3-hydroxyphenyl)-piperidin-4-yl]-phenyl}-ethyl)-acetamide]
20 | 3.6 µM | CC(=O)N[C@@H](C)c1ccc(C2CCN(c3ncc(C(=O)NC(C)C)cn3)CC2)cc1 [Example 18.48]
21 | 1 µM | CC(=O)N[C@@H](C)c1ccc(C2CCN(c3ccc4ccc(Cl)cc4n3)CC2)cc1 [Example 5.31]
22 | 5 µM | CC(=O)N[C@@H](C)c1ccc(C2CCN(c3cc(C)ccn3)CC2)cc1 [Example 5.41]
23 | 0.59 µM | CC(=O)N[C@@H](C)c1ccc(C2CCN(c3cc(OCc4cccnc4)ncn3)CC2)cc1 [Example 11.33]
24 | 0.04 µM | CC(=O)N[C@@H](C)c1ccc(C2CCN(c3csc(-c4ccc(C(F)(F)F)cn4)n3)CC2)cc1 [Example 34.2]
25 | 0.11 µM | CC(=O)N[C@@H](C)c1ccc(C2CCN(c3ncc(-c4ccc(C)cn4)cn3)CC2)cc1 [Example 10.121]
26 | 0.68 µM | CC(=O)N[C@@H](C)c1ccc(C2CCN(c3ncc(-c4cc5cc(C#N)ccc5[nH]4)cn3)CC2)cc1 [Example 10.117]

Row | IC50 | SMILES
27 | 0.88 µM | CC(=O)N[C@@H](C)c1ccc(C2CCN(c3ccc4oc(C5CC5)nc4c3)CC2)cc1 [Example 15.14]
28 | 0.18 µM | CCCOc1cc(N2CCC(c3ccc([C@H](C)NC(C)=O)cc3)CC2)ncn1 [Example 11.1]
29 | 0.15 µM | CCC(C)Oc1ccc(N2CCC(c3ccc([C@H](C)NC(C)=O)cc3)CC2)c(C#N)c1 (stereo partly drawn) [Example 4.202]
30 | 2 µM | COc1cc2ccnc(N3CCC(c4ccc([C@H](C)NC(C)=O)cc4)CC3)c2cc1OC [Example 4.31]
31 | 1.7 µM | CC(=O)N[C@@H](C)c1ccc(C2CCN(c3cc(N(C)C)ncn3)CC2)cc1 [Example 11.105]
32 | 0.02 µM | CC(=O)N[C@@H](C)c1ccc(C2CCN(c3ncc(-c4ccc(F)cc4)cn3)CC2)cc1 [Example 10.9]
33 | 0.35 µM | CCOc1ccc(N2CCC(c3ccc([C@H](C)NC(=O)OC)cc3)CC2)cc1 [Example 1.5]
34 | 8.1 µM | CC(=O)N[C@@H](C)c1ccc(C2CCN(c3cc(NC(C)c4ccccc4)ncn3)CC2)cc1 (stereo partly drawn) [Example 11.40]
35 | 0.66 µM | CC(=O)N[C@@H](C)c1ccc(C2CCN(c3ccc(OC4CCCC4)c(F)c3)CC2)cc1 [Example 8.37]
36 | 0.82 µM | COc1ccc(N2CCC(c3ccc([C@H](C)NC(C)=O)cc3)CC2)cn1 [Example 1.53]
37 | 22.1 µM | C[C@H](NC(=O)C1CC1)c1ccc(C2CCN(c3cc4c(cc3F)OCCCO4)CC2)cc1 [Example 1.185]
38 | 18.5 µM | CC(=O)N[C@@H](C)c1ccc(C2CCN(c3ncc(C(=O)NCCN4CCCCC4)cn3)CC2)cc1 [Example 18.59]
39 | 6.9 µM | COc1ccc2cc(-c3cnc(N4CCC(c5ccc([C@H](C)NC(C)=O)cc5)CC4)nc3)ccc2c1 [Example 10.40]
40 | 1.6 µM | CC(=O)NC(C)Cc1ccc(C2CCN(c3ccc(OCC(C)C)cc3)CC2)cc1 (stereo not drawn) [Example 2.7]
41 | 0.2 µM | C[C@H](NC(=O)C1CC1)c1ccc(C2CCN(c3ncnc(N4CCCC4)c3F)CC2)cc1 [Example 11.123]
42 | 0.46 µM | CC(=O)NC(C)Cc1ccc(C2CCN(c3ccc(OC4CC4)cc3)CC2)cc1 (stereo not drawn) [Example 2.9]
43 | 4.2 µM | CCNc1nccc(N2CCC(c3ccc([C@H](C)NC(C)=O)cc3)CC2)n1 [Example 11.50]
44 | 0.52 µM | CCOc1cnc(N2CCC(c3ccc([C@H](C)NC(C)=O)cc3)CC2)c(F)c1 [Example 1.100]
45 | 3.7 µM | CCOc1ccc(N2CCC(c3ccc([C@H](C)NC(=O)N(C)CC4CC4)cc3)CC2)cc1 [Example 14.65]
46 | 7.5 µM | CC(=O)N[C@@H](C)c1ccc(C2CCN(c3cc(Cl)nc(N4CCCC4)n3)CC2)cc1 [Example 5.200, (S)—N-(1-{4-[1-(6-Chloro-2-pyrrolidin-1-yl-pyrimidin-4-yl)-piperidin-4-yl]-phenyl}-ethyl)-acetamide]
47 | 2.1 µM | CCCCOc1ccc(N2CCC(c3ccc([C@H](C)NC(C)=O)cc3)CC2)cc1OC [Example 8.43]
48 | 0.26 µM | COc1ccc(N2CCC(c3ccc([C@H](C)NC(C)=O)cc3)CC2)c(C#N)c1 [Example 1.34]
49 | 0.41 µM | CC(=O)N[C@@H](C)c1ccc(C2CCN(c3ncc(I)cn3)CC2)cc1 [Example 4.43, (S)—N-(1-{4-[1-(5-iodopyrimidin-2-yl)-piperidin-4-yl]-phenyl}-ethyl)-acetamide]
50 | 0.05 µM | CC(=O)N[C@@H](C)c1ccc(C2CCN(c3ncc(-c4ccc(C#N)c(F)c4)cn3)CC2)cc1 [Example 10.1, (S)—N-[1-(4-{1-[5-(4-Cyano-3-fluorophenyl)-pyrimidin-2-yl]-piperidin-4-yl}-phenyl)ethyl]-acetamide]
51 | 0.18 µM | CC(=O)N[C@@H](C)c1ccc(C2CCN(c3ccnc(N4CCCC4)n3)CC2)cc1 [Example 11.114]
